Molecules are shown by their SMILES. Activity calls are given as the source filed them. The rule behind the calls is not given here.

Assay [1] concerns NCI-H460. The assay can be described thus: Antiproliferative activity against human NCI-H460 cells at 0.1 to 0.4 uM assessed as reduction in PIN1 level and measured by Western blot analysis. It counts as functional, cell-based. To be noted: dose 0.1-0.4 µM.
In assay [2] the target is T1, DNA polymerase alpha catalytic subunit (Homo sapiens) (UniProt P09884).
T1 sequence (whole entry): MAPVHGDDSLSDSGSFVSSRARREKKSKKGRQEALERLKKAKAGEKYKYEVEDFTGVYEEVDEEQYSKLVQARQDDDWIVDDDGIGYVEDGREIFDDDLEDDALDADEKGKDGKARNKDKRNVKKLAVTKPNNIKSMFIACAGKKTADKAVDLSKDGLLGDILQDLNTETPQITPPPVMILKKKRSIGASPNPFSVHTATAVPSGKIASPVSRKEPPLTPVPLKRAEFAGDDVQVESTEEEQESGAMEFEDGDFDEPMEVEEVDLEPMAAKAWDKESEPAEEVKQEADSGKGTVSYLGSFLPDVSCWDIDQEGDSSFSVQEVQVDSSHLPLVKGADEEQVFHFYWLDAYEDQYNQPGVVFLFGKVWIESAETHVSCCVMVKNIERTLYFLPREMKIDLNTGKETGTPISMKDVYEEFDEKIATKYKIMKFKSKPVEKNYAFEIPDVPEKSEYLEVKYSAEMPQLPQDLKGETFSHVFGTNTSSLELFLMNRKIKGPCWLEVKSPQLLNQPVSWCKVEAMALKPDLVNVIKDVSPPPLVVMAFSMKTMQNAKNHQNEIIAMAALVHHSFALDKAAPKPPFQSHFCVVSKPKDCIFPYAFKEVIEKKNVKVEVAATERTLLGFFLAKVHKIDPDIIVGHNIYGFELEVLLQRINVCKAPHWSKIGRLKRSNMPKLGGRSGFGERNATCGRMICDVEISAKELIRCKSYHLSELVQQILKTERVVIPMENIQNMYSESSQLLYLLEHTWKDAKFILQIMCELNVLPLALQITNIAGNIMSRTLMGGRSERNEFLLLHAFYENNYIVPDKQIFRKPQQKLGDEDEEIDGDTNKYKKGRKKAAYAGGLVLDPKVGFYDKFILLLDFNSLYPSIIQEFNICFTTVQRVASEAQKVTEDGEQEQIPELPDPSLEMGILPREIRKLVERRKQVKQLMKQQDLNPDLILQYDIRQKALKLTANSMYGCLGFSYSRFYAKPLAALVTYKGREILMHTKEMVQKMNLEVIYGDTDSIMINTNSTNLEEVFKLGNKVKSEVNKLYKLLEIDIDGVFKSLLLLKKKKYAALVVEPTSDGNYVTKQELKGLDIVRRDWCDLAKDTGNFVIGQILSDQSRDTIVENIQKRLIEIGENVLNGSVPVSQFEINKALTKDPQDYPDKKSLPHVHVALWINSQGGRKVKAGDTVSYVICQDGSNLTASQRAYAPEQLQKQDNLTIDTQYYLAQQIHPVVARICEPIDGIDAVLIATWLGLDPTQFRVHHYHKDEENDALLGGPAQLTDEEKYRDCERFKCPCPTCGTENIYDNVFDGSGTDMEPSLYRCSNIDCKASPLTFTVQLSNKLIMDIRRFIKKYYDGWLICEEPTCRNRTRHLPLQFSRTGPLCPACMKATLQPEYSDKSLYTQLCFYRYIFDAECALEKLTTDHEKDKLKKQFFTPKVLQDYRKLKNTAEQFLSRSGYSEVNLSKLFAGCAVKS
The assay can be described thus: Inhibition of recombinant POLA1 (unknown origin) using 5-Fluorescein-rGrGrArArArGrGrArCrGrArArArCrA-3 as substrate at 10 to 50 uM and measured by primer extension assay. As to conditions: dose 10-50 µM.

Assay [3] deals with T2, Histone deacetylase 11 (Homo sapiens) (UniProt Q96DB2).
T2 sequence (whole entry): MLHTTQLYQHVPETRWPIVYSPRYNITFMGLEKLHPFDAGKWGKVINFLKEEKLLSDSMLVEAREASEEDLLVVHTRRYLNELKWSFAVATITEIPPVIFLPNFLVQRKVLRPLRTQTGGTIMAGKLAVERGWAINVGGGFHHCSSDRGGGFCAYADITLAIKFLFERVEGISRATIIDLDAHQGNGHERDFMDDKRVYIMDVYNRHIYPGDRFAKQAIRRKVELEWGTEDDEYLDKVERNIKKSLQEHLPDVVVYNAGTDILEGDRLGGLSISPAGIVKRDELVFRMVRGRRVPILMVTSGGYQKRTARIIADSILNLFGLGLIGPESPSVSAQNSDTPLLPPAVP
Kind of assay: Inhibition of HDAC11 in human NCI-H460 cells at 0.1 to 0.4 uM assessed as induction of p53 acetylation and measured by Western blot analysis. The format is cell-based. To be noted: dose 0.1-0.4 µM. On the technique in general: A western blot detects proteins with antibodies after separation by electrophoresis.

In the next assay the test system is A2780. The assay can be described thus: Induction of DNA damage in human A2780 cells at 0.1 to 0.4 uM assessed as increase in p-H2AX levels and measured by Western blot analysis. The format is functional, cell-based. To be noted: dose 0.1-0.4 µM.
In assay [4] the test system is NCI-H460. The assay can be described thus: Induction of DNA damage in human NCI-H460 cells at 0.1 to 0.4 uM assessed as increase in p-H2AX levels and measured by Western blot analysis. To be noted: dose 0.1-0.4 µM. The format is functional, cell-based.
For assay [5], the system named is NCI-H460. The assay can be described thus: Antiproliferative activity against human NCI-H460 cells at 0.1 to 0.4 uM assessed as reduction in p-ERK1/2 level and measured by Western blot analysis. The format is functional, cell-based. To be noted: dose 0.1-0.4 µM.
The test system of assay [6] is NCI-H460. Kind of assay: Induction of cell cycle arrest in human NCI-H460 cells assessed as accumulation of cells at G2/M phase at 0.26 uM after 72 hrs by flow cytometry (reference value: 21.1%). The format is functional.
Assay [7] relates to NCI-H460. The assay can be described thus: Down-regulation of POLA1 mRNA expression in human NCI-H460 cells at 0.25 uM measured by qRT-PCR assay. The format is functional, cell-based. (In qPCR the cycle at which signal appears reflects the starting amount.)
Assay [8] in a line: Induction of cell cycle arrest in human H460-R9A cells assessed as accumulation of cells at S phase at 2.8 uM after 72 hrs by flow cytometry (reference value: 34.5%). The format is functional. On the technique in general: Flow cytometry measures light scatter and fluorescence of single cells or particles in a stream.
A further assay concerns MDA-MB-231. Kind of assay: Antiproliferative activity against human MDA-MB-231 cells incubated for 24 hrs followed by incubating in drug-free medium for 48 hrs and measured by SRB assay. The format is functional, cell-based.
A further assay relates to MM473. The assay can be described thus: Induction of cell cycle arrest in human MM473-Luc cells assessed as accumulation of cells at sub-G1 phase at 1.2 uM after 72 hrs by flow cytometry (reference value: 1.3%). The format is functional.
In assay [9] the test system is NCI-H460. The assay can be described thus: Antitumor activity against human NCI-H460 cells xenografted in mouse assessed as tumor growth inhibition at 50 mg/kg, po qd administered 5 times a week for 3 to 4 weeks. To be noted: time 3-4 weeks, read-out: TGI. The format is functional.
A short description of assay [10]: Antitumor activity against human H460-R9A cells xenografted in mouse assessed as tumor growth inhibition at 50 mg/kg, po qd administered 5 times a week for 3 to 4 weeks in combination with cisplatin at 4 mg/kg, iv administered every 7 days for 4 weeks. The format is functional. To be noted: time 3-4 weeks, read-out: TGI.
Another assay concerns H460-R9A. The assay can be described thus: Antiproliferative activity against human H460-R9A cells at 0.75 to 12 uM in combination with SIS17 after 72 hrs by MTT assay. The format is functional, cell-based. To be noted: dose 0.75-12 µM.
Assay [11] can be described thus: Antitumor activity against human H460-R9A cells xenografted in mouse assessed as tumor growth inhibition at 20 mg/kg, po qd administered […] for 3 to 4 weeks. As to conditions: time 3-4 weeks, read-out: TGI. The format is functional.

As for `CC(Oc1ccc(-c2ccc(C=CC(=O)O)cc2)cc1C12CC3CC(CC(C3)C1)C2)C(=O)NO` (stereo unspecified), the outcome in the assay on NCI-H460 [1], with A2780, with NCI-H460 [4] and in the assay with NCI-H460 [5] was Active. The inhibition entry in assay [2] and in [3] was “Active” each time. Further, in the assay with NCI-H460 [6], the Activity turned out to be 7.8%.

The IC50 is the concentration needed to halve the response being measured. Read a high IC50 as weaker potency. For the compound `O=C(O)C=Cc1ccc(-c2ccc(OCC(=O)NO)c(C34CC5CC(CC(C5)C3)C4)c2)cc1`, the outcome in the assay on NCI-H460 [1], in the assay with NCI-H460 [7], in the assay on NCI-H460 [4] and in the assay with NCI-H460 [5] was Active. The inhibition entry in assay [2] and in assay [3] was “Active” each time. For the same compound, the Activity in assay [8] is 37.4%; in the assay with MM473, 39.7%. The compound further returned an IC50 with MDA-MB-231 of 1900 nM. The inhibition in vivo at 50 mg/kg in the assay with NCI-H460 [9] was 61%; in assay [10], 78%.

In the case of `O=C(O)C=Cc1ccc(-c2ccc(O)c(C34CC5CC(CC(C5)C3)C4)c2)cc1`, the result with H460-R9A was Active. This compound also came in with an IC50 with MDA-MB-231 of 1100 nM. Also, the inhibition in vivo at 20 mg/kg in assay [11] was found to be 0%.

For the origin of these results see ChEMBL document CHEMBL5154648, “Antitumor activity of novel POLA1-HDAC11 dual inhibitors” (Eur J Med Chem, 2022).
